Some test systems named below: HCT-116; Malme-3M; SN12C; SNB-75; TK-10; K562; EKVX; MDA-MB-435; ACHN; SK-MEL-2; HOP-62; NCI/ADR-RES; CCRF-CEM; NCI-H23; NCI-H522; Hs-578T; HT-29; SR; M14.
Common to all, as to assay: growth of human tumour cells (NCI), 48 h

SMILES strings stand for the structures.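 Dose response: 5 concentrations. Exposure: 48 h. Format: 96-well plates. Endpoint: linear interpolation; highest concentration if not reached. GI50: concentration for 50% inhibition of growth.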 Calls of active or inactive are those of the source. No stated cut-off is given here; in the data, active = GI50 up to about 1.1 µM and inactive = higher.

For `CN(/N=C(\C(=O)O)c1ccccc1)C1=NCCCCN1`, the GI50 with HCT-116, in the experiment with Malme-3M, in the experiment on SN12C, with SNB-75, in the experiment on TK-10 and with K562 was > 100 µM (inactive) throughout. Also, the GI50 with EKVX, in the experiment on MDA-MB-435, in the experiment on ACHN, with SK-MEL-2, in the experiment on HOP-62 and in the experiment with NCI/ADR-RES was > 100 µM (inactive) in each case. Moreover, the GI50 in the experiment with CCRF-CEM, with NCI-H23, in the experiment on NCI-H522, in the experiment with Hs-578T, in the experiment with HT-29 and in the experiment on SR was > 100 µM (inactive) each time.

In the case of `CC1(C)CC[C@]2(C(=O)O)CC[C@]3(C)C(=CCC4=C5C[C@H](O)[C@H](O)[C@@](C)(CO)[C@@]5(C)CC[C@]43C)[C@@H]2C1`, the GI50 in the experiment on HCT-116 is 31.3 µM (inactive); in the experiment on Malme-3M it was 69.2 µM (inactive); with SN12C, 39.6 µM (inactive); in the experiment with SNB-75, 26.7 µM (inactive); in the experiment with TK-10 it was 53.6 µM (inactive); with K562, 62.8 µM (inactive). The GI50 with EKVX was 51.5 µM (inactive); with MDA-MB-435 it was 62.1 µM (inactive); in the experiment on ACHN, > 100 µM (inactive); with SK-MEL-2 it was 80.5 µM (inactive); in the experiment with HOP-62, > 100 µM (inactive); in the experiment with M14, 66.2 µM (inactive). Also, the GI50 in the experiment with NCI/ADR-RES is 43.4 µM (inactive); in the experiment with CCRF-CEM it was 0.944 µM (active); with NCI-H23, 37.9 µM (inactive); with NCI-H522, 46.2 µM (inactive); with Hs-578T, 39.9 µM (inactive); in the experiment on HT-29 it was 41.5 µM (inactive). In the experiment on SR, the GI50 was > 100 µM (inactive).

`NC1=C(N2CCCCC2)C(=O)NC2=N/C(=C\c3ccco3)C(=O)N21`: the GI50 in the experiment with HCT-116, in the experiment with Malme-3M, in the experiment on SN12C, in the experiment with SNB-75, in the experiment with TK-10 and in the experiment with K562 was > 100 µM (inactive) each time. The GI50 in the experiment with EKVX, in the experiment on MDA-MB-435, in the experiment on ACHN, with M14, in the experiment with NCI/ADR-RES and with CCRF-CEM was > 100 µM (inactive) throughout. For the same molecule, the GI50 with NCI-H23 was > 100 µM (inactive); in the experiment on NCI-H522 it was > 100 µM (inactive); with Hs-578T, > 100 µM (inactive); in the experiment with HT-29 it was > 100 µM (inactive); with SR it was 88.3 µM (inactive).

Take `Cc1ccc2c(O)cc(-c3cccs3)nc2n1`: the GI50 with HCT-116 was 4.81 µM (inactive); with Malme-3M, 15.3 µM (inactive); in the experiment with SN12C, 19.1 µM (inactive); with SNB-75, 10.1 µM (inactive); in the experiment on TK-10, > 100 µM (inactive); with K562, 5.81 µM (inactive). For the same molecule, the GI50 is 57 µM (inactive) in the experiment on EKVX; 1.58 µM (inactive) in the experiment on MDA-MB-435; 33 µM (inactive) with ACHN; > 25.9 µM (inactive) in the experiment on SK-MEL-2; 37.9 µM (inactive) in the experiment on HOP-62; 6.59 µM (inactive) in the experiment on M14. Further, the GI50 in the experiment with NCI/ADR-RES was 2.9 µM (inactive); in the experiment with CCRF-CEM, 15.3 µM (inactive); in the experiment with NCI-H23, 7.71 µM (inactive); in the experiment on NCI-H522 it was 4.58 µM (inactive); in the experiment on Hs-578T it was 11.6 µM (inactive); in the experiment with HT-29, 16.2 µM (inactive). The GI50 with SR was 2.05 µM (inactive).

Take `C#C/C=C/CC1OC(C(Br)CC)CC(Br)C2CC1O2` (centres undefined): the GI50 in the experiment with HCT-116 is 30.6 µM (inactive); with Malme-3M, 11.3 µM (inactive); in the experiment with SN12C, 63.7 µM (inactive); in the experiment on SNB-75, 52.1 µM (inactive); with TK-10 it was > 100 µM (inactive); in the experiment with K562, 29 µM (inactive). For the same molecule, the GI50 in the experiment with EKVX was 40.6 µM (inactive); in the experiment with MDA-MB-435, 86.5 µM (inactive); in the experiment with ACHN it was 39.4 µM (inactive); in the experiment on SK-MEL-2 it was > 100 µM (inactive); with HOP-62 it was 85.7 µM (inactive); with M14 it was > 100 µM (inactive). The GI50 is 19.1 µM (inactive) in the experiment on NCI/ADR-RES; 38.6 µM (inactive) in the experiment with CCRF-CEM; > 100 µM (inactive) in the experiment on NCI-H23; 2.58 µM (inactive) in the experiment on NCI-H522; 87.9 µM (inactive) in the experiment on Hs-578T; 42.6 µM (inactive) with HT-29. Further, in the experiment with SR, the GI50 was 34.6 µM (inactive).

On to `O=C1OCC2OC(=O)c3cc(O)c(O)c(O)c3-c3c(O)c(O)c(O)c4c3C(=O)OC(C2OC(=O)c2cc(O)c(O)c(O)c2-c2c1cc(O)c(O)c2O)C1OC(=O)c2c-4c(O)c(O)c(O)c2[C@@H]1C(O)C(O)C(O)C(O)CO` (some centres undefined), for which the GI50 in the experiment with HCT-116 was 16.2 µM (inactive); with Malme-3M, 18.1 µM (inactive); in the experiment with SN12C it was 16 µM (inactive); with SNB-75 it was < 0.01 µM (active); in the experiment on K562, 10.5 µM (inactive); in the experiment with EKVX, 19.8 µM (inactive). Moreover, the GI50 was 4.42 µM (inactive) in the experiment on MDA-MB-435; 16.5 µM (inactive) in the experiment on ACHN; 21.6 µM (inactive) in the experiment on SK-MEL-2; 17.9 µM (inactive) with HOP-62; 17.8 µM (inactive) with M14; 22.2 µM (inactive) in the experiment on NCI/ADR-RES. Moreover, the GI50 was 4.75 µM (inactive) in the experiment on CCRF-CEM; 19.2 µM (inactive) in the experiment with NCI-H23; 18.8 µM (inactive) with NCI-H522; 27.9 µM (inactive) in the experiment with Hs-578T; 14.4 µM (inactive) in the experiment on HT-29; 22.5 µM (inactive) in the experiment on SR.

As to `COc1ccc2c(c1)OC(c1cccnc1)C(c1ccccc1)C2=O` (centres undefined), the GI50 in the experiment with HCT-116 is 97.5 µM (inactive); in the experiment on Malme-3M it was > 100 µM (inactive); with SN12C, > 100 µM (inactive); with SNB-75 it was > 100 µM (inactive); in the experiment with TK-10, > 100 µM (inactive); with K562, > 100 µM (inactive). Moreover, the GI50 is > 100 µM (inactive) in the experiment on EKVX; > 100 µM (inactive) with MDA-MB-435; > 100 µM (inactive) in the experiment with ACHN; > 100 µM (inactive) in the experiment on SK-MEL-2; 25.9 µM (inactive) in the experiment with HOP-62; > 100 µM (inactive) in the experiment with M14. Further, the GI50 was > 100 µM (inactive) in the experiment on NCI/ADR-RES; > 100 µM (inactive) in the experiment with CCRF-CEM; > 100 µM (inactive) in the experiment with NCI-H23; > 100 µM (inactive) in the experiment on NCI-H522; 54 µM (inactive) in the experiment on Hs-578T; > 100 µM (inactive) in the experiment with HT-29. Also, the GI50 with SR is > 100 µM (inactive).

In the case of `CC1CCCN(CP(=O)(c2ccccc2)c2ccccc2)C1` (centres undefined), the GI50 was 93.8 µM (inactive) with HCT-116; > 100 µM (inactive) in the experiment with Malme-3M; > 100 µM (inactive) with SN12C; > 100 µM (inactive) with SNB-75; > 100 µM (inactive) with TK-10; > 100 µM (inactive) in the experiment with K562. In addition, the GI50 with EKVX, in the experiment on MDA-MB-435, in the experiment with ACHN, in the experiment on SK-MEL-2, in the experiment with HOP-62 and in the experiment with M14 was > 100 µM (inactive) throughout. Besides, the GI50 in the experiment on NCI/ADR-RES, with NCI-H23, in the experiment on NCI-H522, in the experiment on Hs-578T and with SR was > 100 µM (inactive) throughout.

`Nc1nc(NCC2(CO)CC(CCc3ccccc3)C2)cc(=O)[nH]1` (centres undefined): the GI50 in the experiment on HCT-116 is > 100 µM (inactive); with Malme-3M it was > 100 µM (inactive); in the experiment on SN12C, > 100 µM (inactive); with SNB-75, > 100 µM (inactive); in the experiment with K562, 26.2 µM (inactive); with EKVX it was > 100 µM (inactive). Besides, the GI50 in the experiment with MDA-MB-435 is > 100 µM (inactive); in the experiment on SK-MEL-2 it was > 100 µM (inactive); in the experiment on HOP-62 it was > 100 µM (inactive); in the experiment with M14, > 100 µM (inactive); in the experiment with NCI/ADR-RES, > 100 µM (inactive); in the experiment with CCRF-CEM, 78.2 µM (inactive). Also, the GI50 in the experiment with NCI-H23, in the experiment on NCI-H522, in the experiment with Hs-578T, with HT-29 and in the experiment with SR was > 100 µM (inactive) each time.

`NNC(=O)CNc1cccc(Br)c1`: the GI50 in the experiment on HCT-116, in the experiment with Malme-3M, in the experiment on SN12C, with SNB-75, with TK-10 and in the experiment with K562 was > 100 µM (inactive) throughout. Further, the GI50 in the experiment on EKVX, with MDA-MB-435, in the experiment with ACHN, in the experiment with SK-MEL-2, with HOP-62 and in the experiment on M14 was > 100 µM (inactive) each time. For the same molecule, the GI50 in the experiment on NCI/ADR-RES, with NCI-H23, in the experiment with NCI-H522, with Hs-578T, in the experiment with HT-29 and in the experiment on SR was > 100 µM (inactive) each time.

Take `CC1(C)C[C@@H]2C1CCC1(C)CC2(O)CC[C@H]1O` (some centres undefined): the GI50 with Malme-3M, in the experiment with SN12C, in the experiment with SNB-75, in the experiment on TK-10, in the experiment on K562 and with EKVX was > 100 µM (inactive) in each case. In addition, the GI50 with MDA-MB-435, with ACHN, with SK-MEL-2, with HOP-62, in the experiment with M14 and in the experiment with NCI/ADR-RES was > 100 µM (inactive) each time. The GI50 with CCRF-CEM, in the experiment on NCI-H23, with NCI-H522, in the experiment on Hs-578T, in the experiment with HT-29 and in the experiment with SR was > 100 µM (inactive) each time.

The values are drawn from ChEMBL document CHEMBL1201862, “PubChem BioAssay data set” (2004).
